Source: patent publication US12492367B2, “Sensor chip capable of culturing cells and of analyzing cell-derived substance, and cell activity quantitative analysis method using the same” (AJOU UNIVERSITY INDUSTRY-ACADEMIC COOPERATION FOUNDATION, priority 2020, dated 2025)

Columns and labels:
[1] = tested on: RAW 264.7 cells; assay: Observation of cell shape change of RAW 264.7 cells after PMA treatment in the sensor chip; type: cell-based, murine; conditions: 16 μM PMA added to culturing liquid; RAW 264.7 cells adhered after 24 hours culture; FIGS. 4-1 and 4-2
Protocol: (§1) After introducing the sensor chip into an autoclave, the sensor chip was autoclaved at a temperature of 120° C. for […]. Thereafter, RAW 264.7 cells as a murine macrophage cell line were inoculated into a cell culturing compartment containing the culturing liquid of the sterilized sensor chip, and then were cultured for 24 hours to adhere the cells to a surface of the culturing compartment. In this regard, Dulbecco's modified eagle medium (DMEM), 10% fetal bovine serum, and 5% penicillin streptomycin were added to the culturing liquid, and then culturing of the cells was carried out at 37° C., and under a 5% CO2 concentration condition.
(§2) After identifying that the cells were adhered to the surface of the culturing compartment, 16 μM of PMA was added to the culturing liquid to chemically activate the cells, and change in the cell shape was observed (FIGS. 4-1 and 4-2). In this regard, PMA used as the chemical stimulant acts as a strong tumor promoter and is a chemical that induces cell growth, differentiation, and immune response when the PMA is added to the culturing liquid. When the external stimulating substance such as the PMA is added to the culturing liquid, the immune cells recognize the external stimulating substance as an external stimulus such that the activation of the cells is induced.

[2] = tested on: RAW 264.7 cells; assay: Cyclic voltammetry measurement of hydrogen peroxide secreted into the cell culturing liquid after PMA treatment (HRP carbon paste work electrode); type: cell-based, murine; conditions: 16 μM PMA; CV 0 V to −1 V, reduction current at −400 mV; calibration curve; FIG. 4-6
Protocol: as §1
as §2, with “When the external stimulating substance such as the PMA is added to the culturing liquid, the immune cells recognize the external stimulating substance as an external stimulus such that the activation of the cells is induced.” left out
For this purpose, a calibration curve (FIG. 4-5) was obtained based on the CV results measured while hydrogen peroxide having varying concentrations was added to the cell culturing liquid. […]

## CCCCCCCCCCCCCC(=O)O[C@@H]1[C@@H](C)[C@@]2(O)[C@@H](C=C(CO)C[C@]3(O)C(=O)C(C)=C[C@@H]23)[C@@H]2C(C)(C)[C@]12OC(C)=O [PMA, phorbol 12-myristate 13-acetate]
[1]
  change in the cell shape after the PMA treatment: cell shape changed into an atypical shape
[2]
  concentration of hydrogen peroxide secreted from the cells over time after the PMA treatment: concentration of hydrogen peroxide secreted from the cells also increases
